Experimental findings from patent publication US5856529A, “Benzofuran and dihydrobenzofuran melatonergic agents” (Bristol-Myers Squibb Company, priority 1997, dated 1999) are described below.

The target of the experiment is T1, ML1a human melatonin receptor (Homo sapiens, UniProt P48039).
T1 construct: expressed in transfected cells
In words: Melatonergic Receptor Binding Activity (2-[125I]-iodomelatonin, membranes of NIH-3T3 cells expressing ML1a receptor). The note with it: 37° C. for 1 hour, read-out: Melatonin Binding Affinity (IC50). As to the method: Melatonergic Receptor Binding Activity
(a) TME=50 mM Tris buffer containing 12.5 mM MgCl2, and 2 mM EDTA, pH 7.4 at 37° C. with concentrated HCl.
(b) Wash buffer: 20 mM Tris base containing 2 mM MgCl2, pH 7.4 at room temperature.
(c) 10^-4 M melatonin (10^-5 M final concentration).
(d) 2-[^125 I]-iodomelatonin, […] final concentration
The melatonin ML1a receptor cDNA was subcloned into pcDNA3 and introduced into NIH-3T3 cells using Lipofectamine. Transformed NIH-3T3 cells resistant to geneticin (G-418) were isolated, and single colonies expressing high levels of 2[^125 I]-iodomelatonin binding were isolated. Cells are maintained in DMEM supplemented with 10% calf serum and G-418 (0.5 g/liter). Cells are grown to confluency in T-175 flasks, scraped using Hank's balanced salt solution, and frozen at -80° C. For preparing membrane homogenates, pellets are thawed on ice, and resuspended in TME buffer in the presence of 10 μg/ml aprotinin and leupeptin, and 100 μM phenylmethylsulfonylfluoride. The cells were then homogenized using a dounce homogenizer, and centrifuged. The resulting pellet was resuspended with dounce homogenizer in TME (supplemented with the above protease inhibitors) and frozen. On the day of assay, the small aliquot was thawed on ice and resuspended in ice cold TME (1:50-1:100 v/v) and held on ice until assayed.
3. Incubation: 37° C. for 1 hour. Reaction is terminated by filtration. Filters are washed 3 times.

T1 sequence (P48039 whole entry): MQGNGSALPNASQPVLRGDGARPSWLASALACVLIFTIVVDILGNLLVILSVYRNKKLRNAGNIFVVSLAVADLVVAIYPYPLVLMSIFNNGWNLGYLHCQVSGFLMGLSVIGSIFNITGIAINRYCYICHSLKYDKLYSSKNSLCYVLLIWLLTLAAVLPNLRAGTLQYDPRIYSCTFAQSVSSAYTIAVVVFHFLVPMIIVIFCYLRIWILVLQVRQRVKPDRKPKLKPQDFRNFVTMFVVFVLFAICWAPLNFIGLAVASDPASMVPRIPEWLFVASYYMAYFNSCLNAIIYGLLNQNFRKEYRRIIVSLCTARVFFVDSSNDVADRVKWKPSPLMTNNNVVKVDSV

For `CC(C)C(=O)NC[C@@H]1C[C@H]1c1cccc2c1OCO2` (relative stereo) [Example 11, (trans)-N-[[2-(1,3-benzodioxol-4-yl)cycloprop-1-yl]methyl]-2-methylpropanamide], the IC50 is 10 to 100 nM.
As to `CCC(=O)NC[C@@H]1C[C@H]1c1cccc2occc12` (relative stereo) [Example 23, (trans)-N-[[2-(benzofuran-4-yl)cycloprop-1-yl]methyl]propanamide], the IC50 was < 10 nM.
As for `CCC(=O)NC[C@@H]1C[C@H]1c1cccc2c1CCCO2` (single isomer, unassigned) [Example 42, (-)-(trans)-N-[[2-(3,4-dihydro-2H-1-benzopyran-5-yl)cycloprop-1-yl]methyl]propanamide], the IC50 lay within 10 to 100 nM.
For the molecule `O=C(NC[C@@H]1C[C@H]1c1cccc2c1OCCO2)C(F)(F)F` (single isomer, unassigned) [Example 54, (-)-(trans)-N-[[2-(2,3-dihydro-1,4-benzodioxin-5-yl)cycloprop-1-yl]methyl]trifluoroacetamide], the IC50 was < 10 nM.
Regarding `CCC(=O)NC[C@@H]1C[C@H]1c1cccc2c1CC(C)O2` (single isomer, unassigned; (+)) [Example 82, (+)-(trans)-N-[[2-(2-methyl-2,3-dihydrobenzofuran-4-yl)cycloprop-1-yl]methyl]propanamide], the IC50 was < 10 nM.
On to `CCC(=O)NC[C@@H]1C[C@H]1c1cccc2c1CC(C)O2` (single isomer, unassigned; (-)) [Example 88, (-)-(trans)-N-[[^2-(2-methyl-2,3-dihydrobenzofuran-4-yl)cycloprop-1-yl]methyl]propanamide], for which the IC50 was < 10 nM.
Regarding `CCC(=O)NC[C@@H]1C[C@H]1c1cccc2c1CCCCO2` (relative stereo) [Example 61], the IC50 lay in the range of 100 to 250 nM.
As to `O=C(NC[C@@H]1C[C@H]1c1cccc2c1OCC2)C1CC1` (relative stereo) [Example 67], the IC50 fell in the range of 10 to 100 nM.
With `C=CC(=O)NC[C@@H]1C[C@H]1c1cccc2c1OCCO2` (single isomer, unassigned) [Example 52], the IC50 was < 10 nM.
`CCC(=O)NC[C@@H]1C[C@H]1c1cccc2c1CCCO2` (single isomer, unassigned) [Example 96, (+)-(trans)-N-[[2-(3,4-dihydro-2H-1-benzopyran-5-yl)cycloprop-1-yl]methyl]propanamide]: the half-maximal inhibitory concentration (IC50) was < 10 nM.
As to `CCC(=O)NC[C@@H]1C[C@H]1c1cccc2c1CCO2` (single isomer, unassigned) [Example 2, (-)-(trans)-N-[[2-(2,3-Dihydrobenzofuran-4-yl)cycloprop-1-yl]methyl]propanamide], the IC50 was < 10 nM.
The value for `CC(=O)NC[C@@H]1C[C@H]1c1cccc2c1OCCCO2` (relative stereo) [Example 60] was 10 to 100 nM; that for `O=C(NC[C@@H]1C[C@H]1c1cccc2c1OCCO2)C1CC1` (relative stereo) [Example 18, (trans)-N-[[2-(2,3-dihydro-1,^4-benzodioxin-5-yl)cycloprop-1-yl]-methyl]cyclopropane carboxamide] was 10 to 100 nM.
Then `CCCC(=O)NC[C@@H]1C[C@H]1c1cccc2oc(C)cc12` (relative stereo) [Example 76, (trans)-N-[[2-(2-methyl-benzofuran-4-yl)cycloprop-1-yl]methyl]-butanamide], with < 10 nM.
On to `CCCC(=O)NC[C@@H]1C[C@H]1c1cccc2c1CCO2` (relative stereo) [Example 30, (trans)-N-[[2-(2,3-dihydrobenzofuran-4-yl)cycloprop-1-yl]methyl] butanamide], for which the IC50 is < 10 nM.
Consider `CCC(=O)NC[C@@H]1C[C@H]1c1cccc2c1CCO2` (relative stereo) [Example 29, (trans)-N-[[2-(2,3-dihydrobenzofuran-4-yl)cycloprop-1-yl]methyl] propanamide], for which the 50% inhibitory concentration (IC50) was < 10 nM.
Turning to `CC(=O)NC[C@@H]1C[C@H]1c1cccc2c1OCO2` (relative stereo) [Example 3, (trans)-N-[[2-(1,3-benzodioxol-4-yl)cycloprop-1-yl]methyl]acetamide], the IC50 was < 10 nM.
Then `O=C(NC[C@@H]1C[C@H]1c1cccc2ccoc12)C1CC1` (relative stereo) [Example 80, (trans)-N-[[2-(benzofuran-7-yl)cycloprop-1-yl]methyl]-cyclopropanecarboxamide], with 10 to 100 nM; and `CCC(=O)NCC1C(c2cccc3oc(C)cc23)C1(F)F` (stereo not shown) [Example 95, N-[[2-(2-Methyl-4-benzofuranyl)-3,3-difluorocyclopropanyl]-methyl]propanamide], with 10 to 100 nM.
